Results from patent US20040254162A1, “Oxazolidinone derivatives as antimicrobials” (priority 2001, published 2004).
≈ marks a conversion by molar mass, not a printed value.

Experiments:
Test in all cases: MIC, agar incorporation method
Strep. pyog. ATCC 19615 = details: agar incorporation
MRSA 33 = details: agar incorporation
VRE 6A (Ent. faecium 6A) = details: agar incorporation
MRSA 15187 = details: agar incorporation
S. aureus ATCC 25923 = details: agar incorporation
S. pneum AB 34 = details: agar incorporation
Strep. pne. ATCC 6303 = details: agar incorporation
Ent. faecalis ATCC 29212 = details: agar incorporation
MRSA 562 = details: agar incorporation; Table 1

MIC S. pyogenes 19615 (Strep. pyog. ATCC 19615)	MIC MRSA 33 (MRSA 33)	MIC VRE 6A (VRE 6A (Ent. faecium 6A))	MIC MRSA 15187 (MRSA 15187)	MIC S. aureus 25923 (S. aureus ATCC 25923)	MIC S. pneum AB 34 (S. pneum AB 34)	MIC S. pneum 6303 (Strep. pne. ATCC 6303)	MIC E. faecalis 29212 (Ent. faecalis ATCC 29212)	MIC MRSA 562 (MRSA 562)	Structure (SMILES)
1 µg/mL (≈ 2.32 µM)	4 µg/mL (≈ 9.29 µM)	2 µg/mL (≈ 4.65 µM)	2 µg/mL (≈ 4.65 µM)	2 µg/mL (≈ 4.65 µM)	1 µg/mL (≈ 2.32 µM)	2 µg/mL (≈ 4.65 µM)	2 µg/mL (≈ 4.65 µM)	–	CC(=O)NC[C@H]1CN(c2ccc(N3CCN(C(=O)c4ccco4)CC3)c(F)c2)C(=O)O1 [Compound No. 01, (S)-N-[[3-[3-Fluoro-4-[N-1-[4-(2-furoyl)piperazinyl]]phenyl]-2-oxo-5-oxazolidinyl]methyl]acetamide]
8 µg/mL (≈ 18 µM)	2 µg/mL (≈ 4.5 µM)	8 µg/mL (≈ 18 µM)	2 µg/mL (≈ 4.5 µM)	1 µg/mL (≈ 2.25 µM)	8 µg/mL (≈ 18 µM)	4 µg/mL (≈ 9 µM)	8 µg/mL (≈ 18 µM)	1 µg/mL (≈ 2.25 µM)	CC(=O)NC[C@H]1CN(c2ccc(N3CCN(Cc4ccc(C=O)o4)CC3)c(F)c2)C(=O)O1 [Compound No. 02, (S)-N-[[3-[3-Fluoro-4-[N-1[4-{2-furyl(5-formyl)methyl}]piperazinyl]phenyl]-2-oxo-5-oxazolidinyl]methyl]acetamide]
4 µg/mL (≈ 8.35 µM)	4 µg/mL (≈ 8.35 µM)	8 µg/mL (≈ 16.7 µM)	4 µg/mL (≈ 8.35 µM)	16 µg/mL (≈ 33.4 µM)	4 µg/mL (≈ 8.35 µM)	4 µg/mL (≈ 8.35 µM)	8 µg/mL (≈ 16.7 µM)	–	CC(=O)NC[C@H]1CN(c2ccc(N3CCN(C(=O)c4ccc(CCl)o4)CC3)c(F)c2)C(=O)O1 [Compound No. 05, (S)-N-[[3-Fluoro-4-[N-1[4-(5-chloromethyl-2-furoyl)piperazinyl]phenyl]-2-oxo-5-oxazolidinyl]methyl]acetamide]
1 µg/mL (≈ 2.14 µM)	4 µg/mL (≈ 8.57 µM)	4 µg/mL (≈ 8.57 µM)	4 µg/mL (≈ 8.57 µM)	8 µg/mL (≈ 17.1 µM)	8 µg/mL (≈ 17.1 µM)	4 µg/mL (≈ 8.57 µM)	8 µg/mL (≈ 17.1 µM)	–	CC(=O)NC[C@H]1CN(c2ccc(N3CCN(Cc4ccc(Cl)s4)CC3)c(F)c2)C(=O)O1 [Compound No. 10, (S)-N[[3-[3-Fluoro-4-[N-1[4-{2-thienyl(5-chloro)methyl}]piperazinyl]phenyl]2-oxo-5-oxazolidinyl]methyl]acetamide]
4 µg/mL (≈ 9.25 µM)	8 µg/mL (≈ 18.5 µM)	8 µg/mL (≈ 18.5 µM)	8 µg/mL (≈ 18.5 µM)	8 µg/mL (≈ 18.5 µM)	8 µg/mL (≈ 18.5 µM)	8 µg/mL (≈ 18.5 µM)	8 µg/mL (≈ 18.5 µM)	8 µg/mL (≈ 18.5 µM)	CC(=O)NC[C@H]1CN(c2ccc(N3CCN(Cc4cccs4)CC3)c(F)c2)C(=O)O1 [Compound No. 12, (S)-N-[[3-[3-Fluoro-4-[N-1[4-(2-thienylmethyl)]piperazinyl]phenyl]-2-oxo-5-oxazolidinyl]methyl]acetamide]
2 µg/mL (≈ 3.91 µM)	2 µg/mL (≈ 3.91 µM)	2 µg/mL (≈ 3.91 µM)	2 µg/mL (≈ 3.91 µM)	4 µg/mL (≈ 7.82 µM)	4 µg/mL (≈ 7.82 µM)	4 µg/mL (≈ 7.82 µM)	2 µg/mL (≈ 3.91 µM)	2 µg/mL (≈ 3.91 µM)	CC(=O)NC[C@H]1CN(c2ccc(N3CCN(Cc4cc(Br)cs4)CC3)c(F)c2)C(=O)O1 [Compound No. 14, (S)-N-[[3-[3-Fluoro-4-[N-1[4-{2-thienyl(4-bromo)methyl}]piperazinyl]phenyl]-2-oxo-5-oxazolidinyl]methyl]acetamide]
1 µg/mL (≈ 2.09 µM)	8 µg/mL (≈ 16.8 µM)	8 µg/mL (≈ 16.8 µM)	8 µg/mL (≈ 16.8 µM)	8 µg/mL (≈ 16.8 µM)	8 µg/mL (≈ 16.8 µM)	8 µg/mL (≈ 16.8 µM)	8 µg/mL (≈ 16.8 µM)	–	CC(=O)NC[C@H]1CN(c2ccc(N3CCN(Cc4ccc([N+](=O)[O-])s4)CC3)c(F)c2)C(=O)O1 [Compound No. 23, (S)-N[[3-[3-Fluoro-4-[N-1[4-(2-thienyl(5-nitro)methyl}]piperazinyl]phenyl]2-oxo-5-oxazolidinyl]methyl]acetamide]
1 µg/mL (≈ 2.19 µM)	8 µg/mL (≈ 17.5 µM)	8 µg/mL (≈ 17.5 µM)	8 µg/mL (≈ 17.5 µM)	8 µg/mL (≈ 17.5 µM)	4 µg/mL (≈ 8.76 µM)	4 µg/mL (≈ 8.76 µM)	8 µg/mL (≈ 17.5 µM)	–	CC(=O)NC[C@H]1CN(c2ccc(N3CC4C(C3)C4N(C)C(=O)c3ccoc3)c(F)c2)C(=O)O1 (stereo partly drawn) [Compound No. 32, (S)-N-[[3-[3-Fluoro[4-[3-(1α,5α,6α)-6-[N-(3-furoyl)-N-methyl]amino]-3-azabicyclo-[3.1.0]hexane]phenyl]-2-oxo-5-oxazolidinyl]methyl]acetamide]
0.5 µg/mL (≈ 0.934 µM)	4 µg/mL (≈ 7.47 µM)	4 µg/mL (≈ 7.47 µM)	4 µg/mL (≈ 7.47 µM)	4 µg/mL (≈ 7.47 µM)	4 µg/mL (≈ 7.47 µM)	8 µg/mL (≈ 14.9 µM)	4 µg/mL (≈ 7.47 µM)	–	CC(=O)NC[C@H]1CN(c2ccc(N3C[C@@H]4[C@H](C3)[C@H]4N(C)C(=O)c3ccc(Br)o3)c(F)c2)C(=O)O1 [Compound No. 33, (S)-N-[[3-[3-Fluoro[4-[3-(1α,5α,6α)-6-[N-(5-bromo-2-furoyl)-N-methyl]amino]-3-azabicyclo-[3.1.0.]hexane]phenyl]-2-oxo-5-oxazolidinyl]methyl]acetamide]
0.5 µg/mL (≈ 0.989 µM)	1 µg/mL (≈ 1.98 µM)	4 µg/mL (≈ 7.91 µM)	1 µg/mL (≈ 1.98 µM)	2 µg/mL (≈ 3.96 µM)	2 µg/mL (≈ 3.96 µM)	–	4 µg/mL (≈ 7.91 µM)	1 µg/mL (≈ 1.98 µM)	CC(=O)NC[C@H]1CN(c2ccc(N3CCC(N(C)Cc4ccc([N+](=O)[O-])s4)CC3)c(F)c2)C(=O)O1 [Compound No. 51, (S)-N-[[3-[4-[4-(N-methyl-N-2-thienyl(5-nitro)methyl)aminopiperidine-1-yl]-3-fluorophenyl]-2-oxo-oxazolidin-5-yl]methyl]acetamide]
4 µg/mL (≈ 8.71 µM)	2 µg/mL (≈ 4.35 µM)	16 µg/mL (≈ 34.8 µM)	2 µg/mL (≈ 4.35 µM)	2 µg/mL (≈ 4.35 µM)	8 µg/mL (≈ 17.4 µM)	8 µg/mL (≈ 17.4 µM)	8 µg/mL (≈ 17.4 µM)	–	CC(=O)NC[C@H]1CN(c2ccc(N3CCN(Cc4ccc(C=NO)o4)CC3)c(F)c2)C(=O)O1 [Compound No. 60, (S)-N-[[3-[3-Fluoro-4-[N-1-[4-(2-furyl-(5-aldoxime)methyl}]piperazinyl]phenyl]-2-oxo-5-oxazolidinyl]methyl]acetamide]
8 µg/mL (≈ 12.3 µM)	8 µg/mL (≈ 12.3 µM)	8 µg/mL (≈ 12.3 µM)	8 µg/mL (≈ 12.3 µM)	8 µg/mL (≈ 12.3 µM)	8 µg/mL (≈ 12.3 µM)	8 µg/mL (≈ 12.3 µM)	8 µg/mL (≈ 12.3 µM)	–	COC(=O)Cc1ccc(NC(=O)ON=Cc2ccc(CN3CCN(c4ccc(N5C[C@H](CNC(C)=O)OC5=O)cc4F)CC3)o2)cc1 [Compound No. 61]
0.25 µg/mL (≈ 0.531 µM)	4 µg/mL (≈ 8.5 µM)	8 µg/mL (≈ 17 µM)	4 µg/mL (≈ 8.5 µM)	8 µg/mL (≈ 17 µM)	4 µg/mL (≈ 8.5 µM)	4 µg/mL (≈ 8.5 µM)	8 µg/mL (≈ 17 µM)	–	CC(=O)NC[C@H]1CN(c2ccc(N3CC4C(C3)C4N(C)Cc3ccc(C=O)o3)c(F)c2)C(=O)O1 (stereo partly drawn) [Compound No. 72, (S)-N-[[3-[3-Fluoro[4-[3-(1α,5α,6α)-6-[N-(5-formyl-2-furylmethyl)-N-methyl]-amino]-3-azabicyclo-[3.1.0]hexane]phenyl]-2-oxo-5-oxazolidinyl]methyl]acetamide]
1 µg/mL (≈ 2.12 µM)	8 µg/mL (≈ 16.9 µM)	8 µg/mL (≈ 16.9 µM)	8 µg/mL (≈ 16.9 µM)	8 µg/mL (≈ 16.9 µM)	8 µg/mL (≈ 16.9 µM)	4 µg/mL (≈ 8.46 µM)	8 µg/mL (≈ 16.9 µM)	–	CC(=O)NC[C@H]1CN(c2ccc(N3CC4C(C3)C4N(C)C(=O)c3ccsc3)c(F)c2)C(=O)O1 (stereo partly drawn) [Compound No. 73, (S)-N-[[3-[3-Fluoro[4-[3-(1α,5α,6α)-6-[N-(3-thienoyl)-N-methyl]amino]-3-aza-bicyclo[3.1.0]hexane]phenyl]-2-oxo-5-oxazolidinyl]methyl]acetamide]

Structure (SMILES)	MIC S. pyogenes 19615 (Strep. pyog. ATCC 19615)	MIC MRSA 33 (MRSA 33)	MIC VRE 6A (VRE 6A (Ent. faecium 6A))	MIC MRSA 15187 (MRSA 15187)	MIC S. aureus 25923 (S. aureus ATCC 25923)	MIC S. pneum AB 34 (S. pneum AB 34)	MIC S. pneum 6303 (Strep. pne. ATCC 6303)	MIC E. faecalis 29212 (Ent. faecalis ATCC 29212)	MIC MRSA 562 (MRSA 562)
CC(=O)NC[C@H]1CN(c2ccc(N3CCN(Cc4ccc([N+](=O)[O-])o4)CC3)c(F)c2)C(=O)O1.O=C(O)CC(O)(CC(=O)O)C(=O)O [Compound No. 17]	1 µg/mL	2 µg/mL	4 µg/mL	2 µg/mL	2 µg/mL	1 µg/mL	2 µg/mL	2 µg/mL	–
CC(=O)NC[C@H]1CN(c2ccc(N3CCN(Cc4cccn4C)CC3)c(F)c2)C(=O)O1 [Compound No. 22, (S)-N[[3-[3-Fluoro-4-[N-1[4-{2-pyrrole(1-methyl)methyl}]piperazinyl]phenyl]2-oxo-5-oxazolidinyl]methyl]acetamide]	1 µg/mL (≈ 2.33 µM)	8 µg/mL (≈ 18.6 µM)	8 µg/mL (≈ 18.6 µM)	8 µg/mL (≈ 18.6 µM)	2 µg/mL (≈ 4.66 µM)	1 µg/mL (≈ 2.33 µM)	1 µg/mL (≈ 2.33 µM)	8 µg/mL (≈ 18.6 µM)	4 µg/mL (≈ 9.31 µM)
